Assay results: patent US11807693B2 (priority 2014, dated 2023)
Non-standard residues stand in square brackets, D forms with d. Residues, ends and D or L forms follow the SMILES beside them. No end group written: not given here. ξ: configuration not given here. dBip = N[C@H](Cc1ccc(-c2ccccc2)cc1)C(=O)O; Oic = O=C(O)[C@@H]1C[C@@H]2CCCC[C@@H]2N1; Phe(4-Cl) = N[C@@H](Cc1ccc(Cl)cc1)C(=O)O; Oic(3aξ,7aξ) = O=C(O)[C@@H]1CC2CCCCC2N1; Phe(4-I) = N[C@@H](Cc1ccc(I)cc1)C(=O)O; hArg = N=C(N)NCCCC[C@H](N)C(=O)O; Cha = N[C@@H](CC1CCCCC1)C(=O)O; NMeL = CN[C@@H](CC(C)C)C(=O)O; Nle = CCCC[C@H](N)C(=O)O

Key:
[1] = tested on: Rat Peritoneal Mast Cells
[2] = tested on: rats with myocardial infarction (MI)-induced heart failure; test: Hemodynamics in rats with MI-induced heart failure (Millar PV loop); assay type: in vivo, Lewis rats; conditions: continuous i.v. infusion, 30 min per dose
Protocol: To assess the cardiovascular effects of modified apelin polypeptides, the polypeptides were administered to rats with myocardial infarction (MI)-induced heart failure. Cardiac function was assessed via the Millar PV loop system.
Male Lewis rats at 2-3 month of age were used for the studies. MI was induced by ligation of the left anterior descending coronary artery (LAD). Echocardiography was performed at 1 week post-MI for animal enrollment. If ejection fraction (EF) was more than 40% and no infarct was identified from echocardiography images, these animals were excluded from the study. A Millar PV loop catheter was inserted into the right common carotid artery and then advanced to the left ventricle (LV) for cardiovascular hemodynamic assessment. The arterial pressure catheter was inserted into a femoral artery for peripheral blood pressure monitoring. Experiments were performed six to seven weeks following induction of MI. The following apelin polypeptides were given intravenously via jugular vein at various doses.
Peptides were continuously infused for 30 min at each dose. At the end of the experiment, the infarct size was verified by gross morphology. FIGS. 6-8 show the results of these experiments. The infarct size (38-39% of LV) was very similar among groups. […] Contractility (dp/dt max), ejection fraction (EF), mean arterial pressure (MAP), and heart rate (HR) changes over baseline are reported at the end of the 30 min infusion period for each polypeptide.

liver homogenate = conditions: rat, 37° C., up to 4 hr
kidney homogenate = conditions: rat, 37° C., up to 4 hr
[3] = tested on: isolated perfused rat hearts; test: Langendorff isolated perfused rat heart; conditions: FIGS. 4A-D and 5A-D
Source text: To assess the hemodynamic cardiac function of the peptides, a Langendorff isolated heart system was used. The isolated heart from rat provides a broad spectrum of measurements that can include biochemical, metabolic, morphological and physiological indices. Although the system lacks neurohormonal influences, neural regulation and high coronary flows, the advantages of the system include the ability to study direct cardiac effects without systemic circulation and a host of peripheral interactions. This method can yield excellent dose-response relationships and provides critical insight into the pharmacological and physiological properties of the molecules of interest.
Animals were anesthetized through administration of 50-100 mg/kg dose of sodium pentobarbital via the intraperitoneal route. The heart was excised and gently cradled between fingers to avoid injury followed by lifting slightly before incising the aorta, vena cava and pulmonary vessels. Immediately after excision of the heart with aorta, the heart was mounted onto the cannula in the Langendorff apparatus via the aorta. […] The pressure was measured through a pressure sensing balloon catheter inserted in the left ventricular cavity. The intrinsic inotropy (force of muscle contraction) and lusitropy (cardiac relaxation) effects of the heart were assessed by dp/dtmax and dp/dtmin.

[4] = In vitro stability in rat liver homogenate; assay type: in vitro ADME; conditions: tissue homogenate
In short: (§1)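 Peptide remaining was followed by high-resolution LC-MS of methanol-quenched, centrifuged samples with internal standard. Incubations were at 37° C. over 4 hr, peptides at 5 μM final in rat plasma or in rat liver or kidney homogenate.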

[5] = In vitro stability in rat plasma; assay type: in vitro ADME
In short: as §1

Human Mast Cells = test: Mast cell degranulation (histamine release), human mast cells; assay type: cell-based; conditions: human mast cells derived from CD34+ peripheral blood cells; 0.005 to 30 μM, 37° C., 30 min; less than 30% of total histamine content = negative
Protocol: Mast cell degranulation was measured for a number of the modified apelin polypeptides as follows in order to determine the potential immunogenic effect of the peptides. Mast cell degranulating peptide (MCDP) and compound 48/80 were used as positive controls. MCDP was obtained from Alomone Labs (Israel). Compound 48/80 was obtained from Sigma (Saint Louis, […].). Histamine Elisa kit was obtained from NEOGEN (Lexington, Ky.). Tyrode's buffer was obtained from Sigma (#T2397).
Mature human mast cells were derived from CD34+peripheral blood precursor cells after an 8-12 week differentiation/maturation process in vitro. […] Mast cell maturation was confirmed via expression of the mast cell markers c-kit and FcεRI via flow cytometry (>75% positive) and histamine release.
Mast cells (human or rat) were washed in Tyrode's buffer and seeded on 96-well plates (approx. 2000 mast cells/well). A 10 point dilution of test compounds were prepared in Tyrode's buffer and were incubated (0.005 to 30 μM) with mast cells at 37° C. for 30 min. […] A mast cell surfactant control is compared to a mast cell Tyrode's buffer control to ensure surfactants are not inducing histamine release in the absence of the lipidated molecule. Histamine release was quenched by placing the plates on ice for 5 min. Cells were centrifuged at 350×g at 4° C. for 5 min and the supernatant was collected. Released histamine was quantified by ELISA (Neogen Corporation) as per the kits' instruction. Briefly, the absorbance was measured at 650 nm in a microplate reader, following a direct competitive ELISA reaction with test samples compared against a standard curve. Total histamine content of the cells (0.1% Triton X-100) and spontaneous release were also measured to determine the percent of histamine release. Percent histamine release was calculated by the following formula: % histamine release=(ng/ml histamine release by test article−ng/ml spontaneous histamine release in Tyrode's buffer)/(ng/ml total histamine content of cells lysed in 0.1% Triton X-100−ng/ml spontaneous histamine release in Tyrode's buffer)×100.

[6] = In vitro stability in rat kidney homogenate; assay type: in vitro ADME; conditions: rat, tissue homogenate
In short: as §1

rat APJ receptor = target: T1, rat APJ receptor (Rattus norvegicus, UniProt Q9JHG3); test: [35S] GTPγS assay, rat APJ receptor; assay type: biochemical; conditions: rat APJ receptor, read-out: EC50 Rat APJ Receptor
T1 construct: expressed in transfected cells
T1 sequence (Q9JHG3 1-377): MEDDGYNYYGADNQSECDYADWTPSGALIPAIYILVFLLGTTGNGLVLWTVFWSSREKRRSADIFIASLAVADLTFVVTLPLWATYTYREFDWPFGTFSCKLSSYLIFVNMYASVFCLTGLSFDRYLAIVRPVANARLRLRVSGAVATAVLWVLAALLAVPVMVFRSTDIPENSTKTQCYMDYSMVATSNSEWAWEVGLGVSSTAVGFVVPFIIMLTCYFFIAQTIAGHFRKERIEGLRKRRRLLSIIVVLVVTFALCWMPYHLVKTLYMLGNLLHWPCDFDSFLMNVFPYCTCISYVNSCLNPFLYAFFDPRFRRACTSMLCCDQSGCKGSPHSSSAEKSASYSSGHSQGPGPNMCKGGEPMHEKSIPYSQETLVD
Protocol: The membranes were incubated with modified peptides in the assay buffer. […] Bound [^35S] GTPγS was separated from free radiolabel by filtration. The filter bound radioactivity was determined by liquid scintillation counting.

remaining at 4 h, 5 μM [4] [%]	remaining at 4 h, 5 μM [5] [%]	Compound	hemodynamic function (dp/dt max, EF, MAP, HR) in MI rats [2]	Induce Histamine Release? Human Mast Cells (Human Mast Cells)	also measured
		CSCC[C@H](NC(=O)[C@@H]1CCCN1C(=O)CNC(=O)[C@H](CCCCN)NC(=O)[C@H](Cc1cnc[nH]1)NC(=O)[C@H](CO)NC(=O)[C@H](CC(C)C)NC(=O)[C@H](CCCNC(=N)N)NC(=O)[C@@H]1CCCN1C(=O)[C@H](CCCNC(=N)N)NC(=O)[C@@H]1CCC(=O)N1)C(=O)N1CCC[C@H]1C(=O)N[C@@H](Cc1ccccc1)C(=O)O [SEQ ID NO: 6, reference compound]	dose-dependent effects		Cause Histamine Release? [1]: No
		{H2} [MerPr] (10K mPEG acetamide) Q R [aMePro] [hArg] [aMeLeu] S H K G P [Nle] P [4-Cl-F] {COOH}			not cleaved (liver homogenate): >90.0 % remaining at 4 hours; not cleaved (kidney homogenate): >90.0 % remaining at 4 hours
		{TDA}[AC4Abu][Aeea][Aeea]RQRP[hArg][NMeLeu]SHKG[Oic][pI-Phe]P[D-Bip]{COOH}			not cleaved (liver homogenate): >90.0 % remaining at 4 hours; not cleaved (kidney homogenate): >90.0 % remaining at 4 hours
		CC(=O)N[C@@H](CCCCNC(=N)N)C(=O)N[C@H](CCCNC(=N)N)C(=O)N[C@@H](CCC(N)=O)C(=O)N[C@@H](CCCCNC(=N)N)C(=O)N1CCC[C@H]1C(=O)N[C@H](CCCNC(=N)N)C(=O)N(C)[C@@H](CC(C)C)C(=O)N[C@@H](CO)C(=O)N[C@@H](Cc1c[nH]cn1)C(=O)N[C@@H](CCCCN)C(=O)NCC(=O)N1C2CCCCC2C[C@H]1C(=O)N[C@@H](Cc1ccc(I)cc1)C(=O)N1CCC[C@H]1C(=O)N[C@H](Cc1ccc(-c2ccccc2)cc1)C(=O)O (stereo partly drawn) [SEQ ID NO: 16, Acetyl-[hArg][r]Q[hArg]P[r][NMeLeu]SHKG[Oic][pI-Phe]P[D-Bip]{COOH}] (Ac-[hArg][dR]Q[hArg]P[dR][NMeL]SHKG[Oic(3aξ,7aξ)][Phe(4-I)]P[dBip]-OH)			systolic and diastolic function in isolated perfused rat hearts [3]: dose-dependent improvement of both systolic and diastolic function
< 1	< 1	CCCC[C@H](NC(=O)[C@@H]1CCCN1C(=O)CNC(=O)[C@H](CCCCN)NC(=O)[C@H](Cc1c[nH]cn1)NC(=O)[C@H](CO)NC(=O)[C@H](CC(C)C)NC(=O)[C@H](CCCNC(=N)N)N(C)C(=O)[C@@H]1CCCN1C(=O)[C@H](CCCNC(=N)N)NC(=O)[C@H](CCC(N)=O)NC(=O)COCCOCCNC(=O)COCCOCCNC(=O)CC[C@H](NC(=O)CCC)C(=O)O)C(=O)N1CCC[C@H]1C(=O)N[C@@H](Cc1ccc(Cl)cc1)C(=O)O [compound 491]		No	
40.7	86.1	CC(=O)N[C@@H](CCCCNC(=N)N)C(=O)N[C@H](CCCNC(=N)N)C(=O)N[C@@H](CCC(N)=O)C(=O)N[C@@H](CCCCNC(=N)N)C(=O)N1CCC[C@H]1C(=O)N[C@H](CCCNC(=N)N)C(=O)N(C)[C@@H](CC(C)C)C(=O)N[C@@H](CO)C(=O)N[C@@H](Cc1c[nH]cn1)C(=O)N[C@@H](CCCCN)C(=O)NCC(=O)N1[C@H](C(=O)N[C@@H](Cc2ccc(I)cc2)C(=O)N2CCC[C@H]2C(=O)N[C@H](Cc2ccc(-c3ccccc3)cc2)C(=O)O)C[C@@H]2CCCC[C@@H]21 [compound 16] (Ac-[hArg][dR]Q[hArg]P[dR][NMeL]SHKG[Oic][Phe(4-I)]P[dBip]-OH)	dose-dependent effects		remaining at 4 h, 5 μM [6]: 44.5%
< 1	18	CCCCCCCCCCCCC(=O)N[C@@H](CCC(=O)NCCOCCOCC(=O)NCCOCCOCC(=O)N[C@@H](CCC(N)=O)C(=O)N[C@@H](CCCNC(=N)N)C(=O)N1CCC[C@H]1C(=O)N(C)[C@@H](CCCNC(=N)N)C(=O)N[C@@H](CC(C)C)C(=O)N[C@@H](CO)C(=O)N[C@@H](Cc1c[nH]cn1)C(=O)N[C@@H](CCCCN)C(=O)NCC(=O)N1CCC[C@H]1C(=O)N[C@@H](CCCC)C(=O)N1CCC[C@H]1C(=O)N[C@@H](Cc1ccc(Cl)cc1)C(=O)O)C(=O)O [compound 287]		Yes	
		109 (QRP[hArg][Cha]SHKG[Oic][Nle]P[Phe(4-Cl)]-OH; not fully specified (N-terminus)) [compound 109]	dose-dependent effects		
		CC(=O)N[C@@H](CCC(N)=O)C(=O)N[C@@H](CCCCNC(=N)N)C(=O)N1CCC[C@H]1C(=O)N[C@H](CCCNC(=N)N)C(=O)N(C)[C@@H](CC(C)C)C(=O)N[C@@H](CO)C(=O)N[C@@H](Cc1c[nH]cn1)C(=O)N[C@@H](CCCCN)C(=O)NCC(=O)N1C2CCCCC2C[C@H]1C(=O)N[C@@H](Cc1ccc(I)cc1)C(=O)N1CCC[C@H]1C(=O)N[C@H](Cc1ccc(-c2ccccc2)cc1)C(=O)O (stereo partly drawn) [SEQ ID NO: 53, {Acetyl-NH}Q[hArg]Pr[NMeLeu]SHKG[Oic][pI-Phe]P[D-Bip]{COOH}] (Ac-Q[hArg]P[dR][NMeL]SHKG[Oic(3aξ,7aξ)][Phe(4-I)]P[dBip]-OH)			systolic and diastolic function in isolated perfused rat hearts [3]: dose-dependent improvement of both systolic and diastolic function
< 1	59.6	CCCC[C@H](NC(=O)[C@@H]1CCCN1C(=O)CNC(=O)[C@H](CCCCN)NC(=O)[C@H](Cc1c[nH]cn1)NC(=O)[C@H](CO)NC(=O)[C@H](CC(C)C)NC(=O)[C@H](CCCNC(=N)N)N(C)C(=O)[C@@H]1CCCN1C(=O)[C@H](CCCNC(=N)N)NC(=O)[C@H](CCC(N)=O)NC(C)=O)C(=O)N1CCC[C@H]1C(=O)N[C@@H](Cc1ccc(Cl)cc1)C(=O)O [compound 68]		No	EC50 (rat APJ receptor): 0.384 nM
